Tested on: SW48 colorectal cancer cells
Assay: Cell-Titer Glo measurement of growth-inhibitory activity in SW48 cells
Format: cell-based
Conditions: Homo sapiens, 120 h, cell viability on day 5, Cell-titer Glo, baseline subtracted, 4PL fit, read-out: SW48_GI50
Protocol: Example A. Cell-Titer Glo Measurement of Growth-Inhibitory Activity in SW48 Cells
This cell-based assay measures growth-inhibitory activity of selected WRN inhibitors in SW48 colorectal cancer cells. SW48 cell line (#CCL-231) was purchased from American type culture collection (ATCC). Cells were cultured following ATCC instructions. The base medium for this cell line is ATCC-formulated Leibovitz's L-15 Medium (#30-2008). To prepare complete medium, fetal bovine serum was added at a final concentration of 10%. Antibiotics including penicillin and streptomycin (#SV30010) were purchased from Cytiva and added into complete medium to prevent bacteria contamination. Cells with a passage number of below 20 were used in this cell-based assay. One day before the assay, cells were resuspended in complete medium and seeded into 96-well plates at a final density of 2000 cells per well. One extra plate was added to measure baseline viability on day 1 before compound treatment. Baseline cell viability was measured using Promega Cell-titer Glo reagent (#G7573) following the protocol provided by the manufacture. Compounds were dissolved in DMSO at a stock concentration of 10 mmol/L. Three-fold serial dilution was performed using DMSO to prepare master plates. Compounds were further diluted using complete medium and added into assay plates. The final concentration of DMSO was 0.2% in assay plates. Cell viability was measured on day 5 using Promega Cell-titer Glo reagent following the same protocol provided by the manufacture. Assay plates were kept on orbital shaker (300 rounds per min) for 2 min and then kept in 37° C. incubator for another 10 minutes. Cell-titer Glo luminescence signal was measured using i3x plate reader. Baseline cell viability was subtracted for growth inhibition 50 (GI50) estimate using GraphPad Prism following the four-parameter logistic (4PL) curve-fitting mathematical model.

For CCc1c(N2CCN(C(=O)c3ncc4ccccc4c3O)CC2)c(=O)n2nc(C3=CCOCC3)nc2n1CC(=O)Nc1ccc(C(F)(F)F)cc1Cl [Example 1, N-[2-Chloro-4-(trifluoromethyl)phenyl]-2-[2-(3,6-dihydro-2H-pyran-4-yl)-5-ethyl-6-[4-(4-hydroxyisoquinoline-3-carbonyl)piperazin-1-yl]-7-oxo-[1,2,4]triazolo[1,5-a]pyrimidin-4-yl]acetamide], the GI50 was under 100 nM.

CCc1c(N2CCN(C(=O)c3nc4ccccc4cc3O)CC2)c(=O)n2nc(C3=CCOCC3)nc2n1CC(=O)Nc1ccc(C(F)(F)F)cc1Cl [Example 2, N-[2-Chloro-4-(trifluoromethyl)phenyl]-2-[2-(3,6-dihydro-2H-pyran-4-yl)-5-ethyl-6-[4-(3-hydroxyquinoline-2-carbonyl)piperazin-1-yl]-7-oxo-[1,2,4]triazolo[1,5-a]pyrimidin-4-yl]acetamide] gave a GI50 of under 100 nM.

With CCc1c(N2CCN(Cc3ncccc3O)CC2)c(=O)n2nc(C3=CCOCC3)nc2n1CC(=O)Nc1ccc(C(F)(F)F)cc1Cl [Example 4, N-[2-chloro-4-(trifluoromethyl)phenyl]-2-[2-(3,6-dihydro-2H-pyran-4-yl)-5-ethyl-6-[4-[(3-hydroxy-2-pyridyl)methyl]piperazin-1-yl]-7-oxo-[1,2,4]triazolo[1,5-a]pyrimidin-4-yl]acetamide] the GI50 was 100 to 1000 nM.

With CCc1c(N2CCN(C(=O)c3c(O)ccc4cccnc34)CC2)c(=O)n2nc(C3=CCOCC3)nc2n1CC(=O)Nc1ccc(C(F)(F)F)cc1Cl [Example 5, N-[2-chloro-4-(trifluoromethyl)phenyl]-2-[2-(3,6-dihydro-2H-pyran-4-yl)-5-ethyl-6-[4-(7-hydroxyquinoline-8-carbonyl)piperazin-1-yl]-7-oxo-[1,2,4]triazolo[1,5-a]pyrimidin-4-yl]acetamide] the GI50 was under 100 nM.

Compound CCc1c(N2CCN(C(=O)c3c(O)ccc4cccnc34)CC2)c(=O)n2nc(N3CCC4(CCCO4)CC3)nc2n1CC(=O)Nc1ccc(C(F)(F)F)cc1Cl [Example 6, N-(2-chloro-4-(trifluoromethyl)phenyl)-2-(5-ethyl-6-(4-(7-hydroxyquinoline-8-carbonyl)piperazin-1-yl)-7-oxo-2-(1-oxa-8-azaspiro[4.5]decan-8-yl)-[1,2,4]triazolo[1,5-a]pyrimidin-4(7H)-yl)acetamide] has a GI50 of 100 to 1000 nM.

In the case of CCc1c(N2CCN(Cc3ncccc3O)CC2)c(=O)n2nc(N3CCC4(CCCO4)CC3)nc2n1CC(=O)Nc1ccc(C(F)(F)F)cc1Cl [Example 7, N-(2-chloro-4-(trifluoromethyl)phenyl)-2-(5-ethyl-6-(4-((3-hydroxypyridin-2-yl)methyl)piperazin-1-yl)-7-oxo-2-(1-oxa-8-azaspiro[4.5]decan-8-yl)-[1,2,4]triazolo[1,5-a]pyrimidin-4(7H)-yl)acetamide], the GI50 is reported as 1000 to 5000 nM.

CCc1c(N2CCN(C(=O)c3c(O)ccc4cccnc34)CC2)c(=O)n2nc(-c3ccc(S(C)(=O)=O)cc3)nc2n1CC(=O)Nc1ccc(C(F)(F)F)cc1Cl [Example 8, N-(2-Chloro-4-(trifluoromethyl)phenyl)-2-(5-ethyl-6-(4-(7-hydroxyquinoline-8-carbonyl)piperazin-1-yl)-2-(4-(methylsulfonyl)phenyl)-7-oxo-[1,2,4]triazolo[1,5-a]pyrimidin-4(7H)-yl)acetamide] gave a GI50 of under 100 nM.

In the case of CCc1c(N2CCN(Cc3ncccc3O)CC2)c(=O)n2nc(-c3ccc(S(C)(=O)=O)cc3)nc2n1CC(=O)Nc1ccc(C(F)(F)F)cc1Cl [Example 9, N-(2-Chloro-4-(trifluoromethyl)phenyl)-2-(5-ethyl-6-(4-((3-hydroxypyridin-2-yl)methyl)piperazin-1-yl)-2-(4-(methylsulfonyl)phenyl)-7-oxo-[1,2,4]triazolo[1,5-a]pyrimidin-4(7H)-yl)acetamide], the GI50 is reported as 100 to 1000 nM.

CCc1c(N2CCN(Cc3ncccc3O)CC2)c(=O)n2nc(-c3ccc(P(C)(C)=O)cc3)nc2n1CC(=O)Nc1ccc(C(F)(F)F)cc1Cl [Example 10, N-(2-Chloro-4-(trifluoromethyl)phenyl)-2-(2-(4-(dimethylphosphoryl)phenyl)-5-ethyl-6-(4-((3-hydroxypyridin-2-yl)methyl)piperazin-1-yl)-7-oxo-[1,2,4]triazolo[1,5-a]pyrimidin-4(7H)-yl)acetamide] showed a GI50 of under 100 nM.

Reference: patent US20260226085A1, “HETEROCYCLIC COMPOUNDS AS WRN INHIBITORS” (Synnovation Therapeutics, Inc., priority 2023, published 2026)
